The results in this text go back to US20020156269A1, “Crystals of diuridine tetraphosphate or salt thereof, process for producing the crystals, and process for producing the compounds” (YAMASA CORPORATION, priority 1998, published 2002).

Data set [1] is described as follows: Stability: acceleration test in sealed bottles at 60° C. for 13 days. In kind it is physicochemical. The settings on record: sealed bottle, 13 days at 60° C. On the procedure:
U2P4.4Na crystals (octahydrate) and a lyophilized product were placed in respective bottles, which were then sealed and allowed to stand for 13 days at 60° C. (acceleration test).

Data set [2] in a line: Hygroscopicity: standing for nine days at controlled temperature and relative humidity. In kind it is physicochemical. The settings on record: for decomposition or change in weight on standing: initial water content approximately 14%. On the procedure: U2P4.4Na crystals (octahydrate) having a water content of approximately 14% were allowed to stand for nine days under the following conditions: a) 25° C. and a relative humidity of 57%; b) 25° C. and a relative humidity of 75%; and c) 40° C. and a relative humidity of 75%. […] The crystals have proven to be stable and to have no hygroscopicity. U2P4.4Na crystals (tetrahydrate) having a water content of approximately 8% were allowed to stand for nine days under conditions of 40° C. and a relative humidity of 75%. In this case, the water content increased to 14-15%.

In the case of `O=c1ccn([C@@H]2O[C@H](COP(=O)([O-])OP(=O)([O-])OP(=O)([O-])OP(=O)([O-])OC[C@H]3O[C@@H](n4ccc(=O)[nH]c4=O)C(O)C3O)C(O)C2O)c(=O)[nH]1.[Na+].[Na+].[Na+].[Na+]` (stereo partly drawn) [lyophilized product, P^1,P^4-di(uridine 5′-)tetraphosphate tetrasodium salt, reference compound], in data set [1], the decomposition result is recorded as “partial decomposition” and the “weight loss of U2P4.4Na” value was “approximately 1.4%”. Further, the “state of the product on storage” value in data set [2] (40° C. and a relative humidity of 75%, on the seventh day of storage) is reported as “mud-like state due to deliquescence”. Further, in data set [2] (nine days, 40° C. and a relative humidity of 75%, initial water content approximately 1%), the “change of water content on standing” value is “increased gradually”.
For the compound `O=c1ccn([C@@H]2O[C@H](COP(=O)([O-])OP(=O)([O-])OP(=O)([O-])OP(=O)([O-])OC[C@H]3O[C@@H](n4ccc(=O)[nH]c4=O)C(O)C3O)C(O)C2O)c(=O)[nH]1.[Na+].[Na+].[Na+].[Na+]` (stereo partly drawn) [U2P4.4Na crystals (tetrahydrate), P^1,P^4-di(uridine 5′-)tetraphosphate tetrasodium salt], the “water content after standing” value in data set [2] (nine days, 40° C. and a relative humidity of 75%, initial water content approximately 8% (tetrahydrate)) is recorded as 14-15%.
Turning to `O=c1ccn([C@@H]2O[C@H](COP(=O)([O-])OP(=O)([O-])OP(=O)([O-])OP(=O)([O-])OC[C@H]3O[C@@H](n4ccc(=O)[nH]c4=O)C(O)C3O)C(O)C2O)c(=O)[nH]1.[Na+].[Na+].[Na+].[Na+]` (stereo partly drawn) [U2P4.4Na crystals (octahydrate), P^1,P^4-di(uridine 5′-)tetraphosphate tetrasodium salt], in data set [1], the decomposition entry is “No decomposition”. The “decomposition or change in weight on standing” value was “No decomposition or change in weight” in data set [2] (nine days, 25° C. and a relative humidity of 57%); “No decomposition or change in weight” in data set [2] (nine days, 25° C. and a relative humidity of 75%); “No decomposition or change in weight” in data set [2] (nine days, 40° C. and a relative humidity of 75%).
